Measurements: patent US20020102280A1, “Solvent systems for pharmaceutical agents” (priority 2000, published 2002)
Like-named read-outs stand apart in the source and are kept apart here.

Legend:
[1] = physchem
Description: Approximately 0.17 gm of Epikuron 200, 0.7 gm essential oil of sweet basil, 0.25 gm of water, and 0.25 gm of glycerol were mixed and the mixture centrifuged.
In this experiment, essential oils of ginger and sweet basil were combined to solubilize the bioactive compound ubiquinone (a coenzyme Q10) in a phospholipid-rich reversed liquid crystal.

[2] = free base form; cited from earlier work
[3] = cited from earlier work
[4] = cited from earlier work; remark: listed apart in the source
[5] = water-solubilized hydrochloride form; cited from earlier work
[6] = Solubilizing paclitaxel in essential oils
[7] = oral, intramuscular and intraperitoneal routes; cited from earlier work

## CCCCN1CCCCC1C(=O)Nc1c(C)cccc1C (stereo not drawn) [bupivicaine]
[1]
  solubilization in liquid crystal (reversed cubic phase): solubilized
[2]
  KOW (octanol-water partition coefficient): approximately 1500

## O=C1CN(/N=C/c2ccc(-c3ccc([N+](=O)[O-])cc3)o2)C(O)=N1 [Dantrolene, dantrolene]
[3]; listed as dantrolene
  solubility in water: approximately 150 mg/L
[4]
  solubility in simple phospholipid-water systems: very low

## N.[Cl][Pt][Cl].c1cscn1 [trans-[Pt(II)Cl2(NH3)(thiazole)]]
[1]
  level solubilized in reversed cubic phase: about 2.4%

## CCCCN1CCCCC1C(=O)Nc1c(C)cccc1C.Cl (stereo not drawn) [bupivicaine hydrochloride]
[5]
  therapeutic half life: only a few hours

## O=C1CN(/N=C/c2ccc(-c3ccc([N+](=O)[O-])cc3)o2)C(O)=N1 [Dantrolene sodium, dantrolene sodium]
[1]
  solubilization in reversed cubic phase: free of dantrolene crystals
[1]; Experiment 10: 3 mg in Epikuron 200/ascorbyl palmitate/gentisic acid/aminocaproic acid/ethanolamine/water + oil of ginger
  dissolution in reversed cubic liquid crystalline phase: dissolved
[3]
  solubility in water: ~300 µg/mL

## CC(=O)O[C@H]1C(=O)[C@@]2(C)[C@H]([C@H](OC(=O)c3ccccc3)[C@]3(O)C[C@H](OC(=O)[C@H](O)[C@@H](NC(=O)c4ccccc4)c4ccccc4)C(C)=C1C3(C)C)[C@]1(OC(C)=O)CO[C@@H]1C[C@@H]2O [Paclitaxel, paclitaxel]
[1]; oil or lipid
  solubility: ≥ 5000 µg/mL
[6]; in oil of bay
  Paclitaxel solubility (w/w, approx): ~16%
[6]; in palmarosa oil
  Paclitaxel solubility (w/w, approx): >10%
[6]; in peppermint oil
  Paclitaxel solubility (w/w, approx): >5%
[6]; in sweet basil oil
  Paclitaxel solubility (w/w, approx): ~7%
[6]; in thyme oil
  Paclitaxel solubility (w/w, approx): ~10%

## C=CC(C)(O)CCC=C(C)C (stereo not drawn) [Linalool, linalool]
[7]
  toxicity: extremely low toxicity

## COC1=C(OC)C(=O)C(C/C=C(\C)CC/C=C(\C)CC/C=C(\C)CC/C=C(\C)CC/C=C(\C)CC/C=C(\C)CC/C=C(\C)CC/C=C(\C)CC/C=C(\C)CCC=C(C)C)=C(C)C1=O [Coenzyme Q10, ubiquinone]
[1]
  solubilization in reversed bicontinuous cubic phase: solubilized
  solubilization in reversed cubic phase: fully solubilized
